Laboratory results as given in patent publication US12588678B2, “Oxazoline compound, synthesis method therefor and application thereof” (NANKAI UNIVERSITY, priority 2019, dated 2026).

Tests used:
[1] = system: Tetranychus cinnabarinus mite larvae; test: Larvicidal activity test, dipping method on bean seedling leaves; assay type: in vivo; details: for acaricidal activity compared with etoxazole: Tetranychus cinnabarinus eggs and larvae, etoxazole as reference; for mortality at 0.1 µg/mL: read-out: mortality of mite larvae (%), 0.1 mg/L; for mortality at 1 µg/mL: read-out: mortality of mite larvae (%), 1 mg/L; for mortality at 10 µg/mL: read-out: mortality of mite larvae (%), 10 mg/L; for mortality at 100 µg/mL: read-out: mortality of mite larvae (%), 100 mg/L; for mortality at 200 µg/mL: read-out: mortality of mite larvae (%), 200 mg/L; for mortality at 0.001 µg/mL: read-out: mortality of mite larvae (%), 0.001 mg/L; for mortality at 0.01 µg/mL: read-out: mortality of mite larvae (%), 0.01 mg/L; for mortality at 0.5 µg/mL: read-out: mortality of mite larvae (%), 0.5 mg/L; for larvicidal activity, times that of etoxazole: relative to etoxazole
From the text: (§1) The assay examples are used to illustrate the acaricidal activity against Tetranychus cinnabarinus (mortality of mite larvae and mortality of mite eggs) of the compounds having the structure represented by formula (I), and the results are shown in tables 1 to 9, where mortality of mite larvae % =(number of dead mite larvae applied/total number of mite larvae applied)×100, and mortality of mite eggs %= (number of dead mite eggs applied/total number of mite eggs applied)×100.
Tetranychus cinnabarinus bred indoors on bean seedlings was used as a test subject by the dipping method. Move adult mites onto the newly grown complete bean seedling leaves with two leaves, cut off the bean seedlings, place the bean seedlings in a greenhouse with illumination at 25° C. for laying eggs for 24 hours, then remove adult mites and keep mite eggs. And continuously culture in the greenhouse for 5 days until mite eggs hatch into mite larvae (ensuring that the number of the mites on each tested leaf is not less than 60).
Completely immerse the bean seedling leaves containing the mite larvae into the sample solution to be detected with Tween at the prepared concentration for 5-6 seconds by using tweezers, slightly throw off residual liquid, put the bean seedling leaves back to the culture cup, continuously culture for 4 days and check the result. One of the plants was immersed in a solution containing no sample to be tested and the remaining additives were identical to the sample solution as a blank control. Each compound was replicated three times.

[2] = system: Tetranychus cinnabarinus mite eggs; test: Activity against mite eggs, dipping method on bean seedling leaves; assay type: in vivo; details: for mortality at 0.1 µg/mL: read-out: mortality of mite eggs (%), 0.1 mg/L; for mortality at 1 µg/mL: read-out: mortality of mite eggs (%), 1 mg/L; for mortality at 10 µg/mL: read-out: mortality of mite eggs (%), 10 mg/L; for mortality at 100 µg/mL: read-out: mortality of mite eggs (%), 100 mg/L; for mortality at 200 µg/mL: read-out: mortality of mite eggs (%), 200 mg/L; for mortality at 0.001 µg/mL: read-out: mortality of mite eggs (%), 0.001 mg/L; for mortality at 0.01 µg/mL: read-out: mortality of mite eggs (%), 0.01 mg/L; for mortality at 0.5 µg/mL: read-out: mortality of mite eggs (%), 0.5 mg/L; for activity on mite eggs, times that of etoxazole: relative to etoxazole
From the text: as §1
Tetranychus cinnabarinus bred indoors on bean seedlings was used as a test subject by the dipping method. Move female adult mites onto the newly grown complete bean seedling leaves with two leaves, cut off the bean seedlings, place the bean seedlings in a greenhouse with illumination at 25° C. for laying eggs for 24 hours, then remove adult mites and keep mite eggs. After continuously culturing in the greenhouse for one day, completely soak the bean seedling leaves containing the acarid eggs into the prepared sample solution to be tested for 5-6 seconds by using tweezers, slightly throw off residual liquid, put the bean seedling leaves back to the culture cup, continuously culture for 4 days and then check the result. One of the plants was immersed in a solution containing no sample to be tested and the remaining additives were identical to the sample solution as a blank control. Each compound was replicated three times.

[3] = Tetranychus cinnabarinus, 96 h, checked after 4 days

## Fc1ccc2c(ccn2Cc2ccc(C3COC(c4c(F)cccc4F)=N3)cc2)c1 (stereo not drawn) [Compound R1-22]
[1]
  acaricidal activity compared with etoxazole: higher acaricidal activity than etoxazole
[1]; Tetranychus cinnabarinus, 96 h, read-out: mortality of mite larvae (%), 0.05 mg/L, checked after 4 days
  mortality at 0.05 µg/mL: 45%
[1]; [3]
  mortality at 0.1 µg/mL: 70%
  mortality at 1 µg/mL: 80%
  mortality at 10 µg/mL: 85%
  mortality at 100 µg/mL: 100%
  mortality at 200 µg/mL: 100%
[2]; Tetranychus cinnabarinus, 96 h, read-out: mortality of mite eggs (%), 0.05 mg/L, checked after 4 days
  mortality at 0.05 µg/mL: 45%
[2]; [3]
  mortality at 0.1 µg/mL: 75%
  mortality at 1 µg/mL: 85%
  mortality at 10 µg/mL: 90%
  mortality at 100 µg/mL: 98%
  mortality at 200 µg/mL: 100%

## Fc1cccc(F)c1C1=NC(c2ccc(Cn3ccc4cc(Cl)ccc43)cc2)CO1 (stereo not drawn) [Compound R1-23]
[1]; [3]
  mortality at 1 µg/mL: 50%
  mortality at 10 µg/mL: 80%
  mortality at 100 µg/mL: 100%
  mortality at 200 µg/mL: 100%
[2]; [3]
  mortality at 1 µg/mL: 60%
  mortality at 10 µg/mL: 75%
  mortality at 100 µg/mL: 100%
  mortality at 200 µg/mL: 100%

## Fc1cccc(F)c1C1=NC(c2ccc(Cn3ccc4cc(Br)ccc43)cc2)CO1 (stereo not drawn) [Compound R1-24]
[1]; [3]
  mortality at 10 µg/mL: 60%
  mortality at 100 µg/mL: 100%
  mortality at 200 µg/mL: 100%
[2]; [3]
  mortality at 1 µg/mL: 40%
  mortality at 10 µg/mL: 80%
  mortality at 100 µg/mL: 100%
  mortality at 200 µg/mL: 100%

## COc1ccc2ccn(Cc3ccc(C4COC(c5c(F)cccc5F)=N4)cc3)c2c1 (stereo not drawn) [Compound R1-25]
[1]; [3]
  mortality at 10 µg/mL: 20%
  mortality at 100 µg/mL: 70%
  mortality at 200 µg/mL: 80%
[2]; [3]
  mortality at 1 µg/mL: 40%
  mortality at 10 µg/mL: 65%
  mortality at 100 µg/mL: 90%
  mortality at 200 µg/mL: 100%

## COCc1ccc(C2COC(c3c(F)cccc3F)=N2)cc1 (stereo not drawn) [Compound R2-1]
[1]; [3]
  mortality at 0.1 µg/mL: 50%
  mortality at 1 µg/mL: 85%
  mortality at 10 µg/mL: 100%
  mortality at 100 µg/mL: 100%
  mortality at 200 µg/mL: 100%
[2]; [3]
  mortality at 0.1 µg/mL: 60%
  mortality at 1 µg/mL: 97%
  mortality at 10 µg/mL: 100%
  mortality at 100 µg/mL: 100%
  mortality at 200 µg/mL: 100%

## CCOCc1ccc(C2COC(c3c(F)cccc3F)=N2)cc1 (stereo not drawn) [Compound R2-2]
[1]
  acaricidal activity compared with etoxazole: higher acaricidal activity than etoxazole
[1]; [3]
  mortality at 0.001 µg/mL: 30%
  mortality at 0.01 µg/mL: 50%
  mortality at 0.1 µg/mL: 80%
  mortality at 0.5 µg/mL: 83%
  mortality at 1 µg/mL: 90%
  mortality at 10 µg/mL: 90%
  mortality at 100 µg/mL: 100%
  mortality at 200 µg/mL: 100%
[2]; [3]
  mortality at 0.001 µg/mL: 40%
  mortality at 0.01 µg/mL: 65%
  mortality at 0.1 µg/mL: 85%
  mortality at 0.5 µg/mL: 90%
  mortality at 1 µg/mL: 95%
  mortality at 10 µg/mL: 100%
  mortality at 100 µg/mL: 100%
  mortality at 200 µg/mL: 100%

## CCCOCc1ccc(C2COC(c3c(F)cccc3F)=N2)cc1 (stereo not drawn) [Compound R2-3]
[1]
  acaricidal activity compared with etoxazole: higher acaricidal activity than etoxazole
  larvicidal activity, times that of etoxazole: 58 times
[1]; [3]
  mortality at 0.001 µg/mL: 45%
  mortality at 0.01 µg/mL: 70%
  mortality at 0.1 µg/mL: 90%
  mortality at 0.5 µg/mL: 91%
  mortality at 1 µg/mL: 95%
  mortality at 10 µg/mL: 97%
  mortality at 100 µg/mL: 100%
  mortality at 200 µg/mL: 100%
[2]; [3]
  mortality at 0.001 µg/mL: 50%
  mortality at 0.01 µg/mL: 77%
  mortality at 0.1 µg/mL: 85%
  mortality at 0.5 µg/mL: 92%
  mortality at 1 µg/mL: 100%
  mortality at 10 µg/mL: 100%
  mortality at 100 µg/mL: 100%
  mortality at 200 µg/mL: 100%
[2]
  activity on mite eggs, times that of etoxazole: 105 times

## FCCOCc1ccc(C2COC(c3c(F)cccc3F)=N2)cc1 (stereo not drawn) [Compound R2-4]
[1]; [3]
  mortality at 0.1 µg/mL: 70%
  mortality at 1 µg/mL: 85%
  mortality at 10 µg/mL: 92%
  mortality at 100 µg/mL: 100%
  mortality at 200 µg/mL: 100%
[2]; [3]
  mortality at 0.1 µg/mL: 70%
  mortality at 1 µg/mL: 90%
  mortality at 10 µg/mL: 98%
  mortality at 100 µg/mL: 100%
  mortality at 200 µg/mL: 100%

## Fc1cccc(F)c1C1=NC(c2ccc(COCC(F)(F)F)cc2)CO1 (stereo not drawn) [Compound R2-5]
[1]
  acaricidal activity compared with etoxazole: higher acaricidal activity than etoxazole
  larvicidal activity, times that of etoxazole: 27 times
[1]; [3]
  mortality at 0.001 µg/mL: 37%
  mortality at 0.01 µg/mL: 65%
  mortality at 0.1 µg/mL: 90%
  mortality at 0.5 µg/mL: 90%
  mortality at 1 µg/mL: 95%
  mortality at 10 µg/mL: 100%
  mortality at 100 µg/mL: 100%
  mortality at 200 µg/mL: 100%
[2]; [3]
  mortality at 0.001 µg/mL: 47%
  mortality at 0.01 µg/mL: 70%
  mortality at 0.1 µg/mL: 90%
  mortality at 0.5 µg/mL: 90%
  mortality at 1 µg/mL: 97%
  mortality at 10 µg/mL: 100%
  mortality at 100 µg/mL: 100%
  mortality at 200 µg/mL: 100%
[2]
  activity on mite eggs, times that of etoxazole: 105 times

## C=C(C)COCc1ccc(C2COC(c3c(F)cccc3F)=N2)cc1 (stereo not drawn) [Compound R2-6]
[1]
  acaricidal activity compared with etoxazole: higher acaricidal activity than etoxazole
[1]; [3]
  mortality at 0.001 µg/mL: 21%
  mortality at 0.01 µg/mL: 45%
  mortality at 0.1 µg/mL: 80%
  mortality at 0.5 µg/mL: 80%
  mortality at 1 µg/mL: 90%
  mortality at 10 µg/mL: 100%
  mortality at 100 µg/mL: 100%
  mortality at 200 µg/mL: 100%
[2]; [3]
  mortality at 0.001 µg/mL: 30%
  mortality at 0.01 µg/mL: 60%
  mortality at 0.1 µg/mL: 95%
  mortality at 0.5 µg/mL: 86%
  mortality at 1 µg/mL: 100%
  mortality at 10 µg/mL: 100%
  mortality at 100 µg/mL: 100%
  mortality at 200 µg/mL: 100%

## C#CCCOCc1ccc(C2COC(c3c(F)cccc3F)=N2)cc1 (stereo not drawn) [Compound R2-7]
[1]; [3]
  mortality at 0.1 µg/mL: 40%
  mortality at 1 µg/mL: 75%
  mortality at 10 µg/mL: 90%
  mortality at 100 µg/mL: 100%
  mortality at 200 µg/mL: 100%
[2]; [3]
  mortality at 0.1 µg/mL: 70%
  mortality at 1 µg/mL: 90%
  mortality at 10 µg/mL: 95%
  mortality at 100 µg/mL: 100%
  mortality at 200 µg/mL: 100%

## Fc1cccc(F)c1C1=NC(c2ccc(COCC#Cc3ccccc3)cc2)CO1 (stereo not drawn) [Compound R2-8]
[1]; [3]
  mortality at 0.1 µg/mL: 50%
  mortality at 1 µg/mL: 80%
  mortality at 10 µg/mL: 92%
  mortality at 100 µg/mL: 100%
  mortality at 200 µg/mL: 100%
[2]; [3]
  mortality at 0.1 µg/mL: 60%
  mortality at 1 µg/mL: 80%
  mortality at 10 µg/mL: 90%
  mortality at 100 µg/mL: 100%
  mortality at 200 µg/mL: 100%

## Fc1cccc(F)c1C1=NC(c2ccc(COCC3CCCO3)cc2)CO1 (stereo not drawn) [Compound R2-9]
[1]; [3]
  mortality at 1 µg/mL: 30%
  mortality at 10 µg/mL: 75%
  mortality at 100 µg/mL: 95%
  mortality at 200 µg/mL: 100%
[2]; [3]
  mortality at 1 µg/mL: 55%
  mortality at 10 µg/mL: 85%
  mortality at 100 µg/mL: 100%
  mortality at 200 µg/mL: 100%

## Fc1cccc(F)c1C1=NC(c2ccc(COCc3ccco3)cc2)CO1 (stereo not drawn) [Compound R2-10]
[1]; [3]
  mortality at 10 µg/mL: 62%
  mortality at 100 µg/mL: 80%
  mortality at 200 µg/mL: 95%
[2]; [3]
  mortality at 10 µg/mL: 75%
  mortality at 100 µg/mL: 100%
  mortality at 200 µg/mL: 100%

## Fc1cccc(F)c1C1=NC(c2ccc(COCc3cccs3)cc2)CO1 (stereo not drawn) [Compound R2-11]
[1]; [3]
  mortality at 1 µg/mL: 70%
  mortality at 10 µg/mL: 80%
  mortality at 100 µg/mL: 100%
  mortality at 200 µg/mL: 100%
[2]; [3]
  mortality at 1 µg/mL: 75%
  mortality at 10 µg/mL: 90%
  mortality at 100 µg/mL: 100%
  mortality at 200 µg/mL: 100%

## Fc1cccc(F)c1C1=NC(c2ccc(COc3ccccn3)cc2)CO1 (stereo not drawn) [Compound R2-12]
[1]; [3]
  mortality at 1 µg/mL: 50%
  mortality at 10 µg/mL: 95%
  mortality at 100 µg/mL: 100%
  mortality at 200 µg/mL: 100%
[2]; [3]
  mortality at 1 µg/mL: 65%
  mortality at 10 µg/mL: 90%
  mortality at 100 µg/mL: 100%
  mortality at 200 µg/mL: 100%
